Experimental data published in US10980781B2, “6-amino-2,4-dihydropyrano [2,3-c] pyrazoles and methods of use” (Purdue Research Foundation, priority 2017, dated 2021).

Target: USP7 (Homo sapiens (Human), UniProt Q93009)
Experiment: USP7 inhibition assay with Ub-Rho 110 substrate (fluorescence progress curves)
Assay type: biochemical
Conditions: for inhibition at 100 µM: 100 μM compound, 1 nM USP7, 200 nM Ub-Rho 110, 3% DMSO, triplicate; for IC50: 11 compound concentrations, two-fold serial dilutions, 1 nM USP7, 200 nM Ub-Rho 110
Description: Each assay was measured in triplicate. […] All reactions contained a final concentration of 3% DMSO. […] The percent inhibition was calculated using Equation (1).
The assay design was identical to as described above. The percent inhibition was calculated using Equation 1 and fit to Equation 2 by use of the Enzyme Kinetics Module of Sigma Plot (v13:Systat Software Inc.), to determine the IC50 value.

Sequence of USP7 (Q93009 whole entry): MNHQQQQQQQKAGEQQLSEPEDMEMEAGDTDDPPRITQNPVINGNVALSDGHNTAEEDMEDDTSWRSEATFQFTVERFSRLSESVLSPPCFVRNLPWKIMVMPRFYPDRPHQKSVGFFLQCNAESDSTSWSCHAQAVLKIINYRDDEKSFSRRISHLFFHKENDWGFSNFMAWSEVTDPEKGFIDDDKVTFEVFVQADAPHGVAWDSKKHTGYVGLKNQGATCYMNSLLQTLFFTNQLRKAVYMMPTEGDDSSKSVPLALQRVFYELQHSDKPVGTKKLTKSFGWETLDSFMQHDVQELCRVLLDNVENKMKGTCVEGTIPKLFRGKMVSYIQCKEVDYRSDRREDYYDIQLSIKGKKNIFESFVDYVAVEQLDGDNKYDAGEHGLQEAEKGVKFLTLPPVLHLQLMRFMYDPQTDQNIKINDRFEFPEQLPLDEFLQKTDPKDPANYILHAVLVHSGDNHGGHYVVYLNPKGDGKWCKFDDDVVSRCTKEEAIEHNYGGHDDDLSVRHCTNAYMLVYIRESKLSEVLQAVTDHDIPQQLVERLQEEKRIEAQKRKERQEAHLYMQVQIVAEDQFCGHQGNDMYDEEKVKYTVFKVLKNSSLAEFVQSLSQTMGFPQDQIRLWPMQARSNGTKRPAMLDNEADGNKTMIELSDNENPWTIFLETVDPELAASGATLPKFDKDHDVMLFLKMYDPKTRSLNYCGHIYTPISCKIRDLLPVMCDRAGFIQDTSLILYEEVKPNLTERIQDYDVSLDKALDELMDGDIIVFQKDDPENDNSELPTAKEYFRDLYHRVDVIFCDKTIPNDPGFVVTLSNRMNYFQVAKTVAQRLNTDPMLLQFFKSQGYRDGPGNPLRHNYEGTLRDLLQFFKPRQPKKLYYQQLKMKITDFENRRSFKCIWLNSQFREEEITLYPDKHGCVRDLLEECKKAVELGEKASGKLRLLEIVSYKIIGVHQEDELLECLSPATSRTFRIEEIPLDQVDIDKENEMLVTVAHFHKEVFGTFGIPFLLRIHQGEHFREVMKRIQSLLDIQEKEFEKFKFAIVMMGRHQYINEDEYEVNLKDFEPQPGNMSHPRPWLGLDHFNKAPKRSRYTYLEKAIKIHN

| SMILES | inhibition at 100 µM [%] | IC50 [µM] |
| --- | --- | --- |
| COc1ccc(C2C(C#N)=C(N)Oc3nn(C(C)=O)c(-c4cccs4)c32)cc1Br (stereo not shown) [Compound 14, 2-Acetyl-6-amino-4-(3-bromo-4-methoxyphenyl)-3-(thiophen-2-yl)-2,4-dihydropyrano[2,3-c]pyrazole-5-carbonitrile] | 85 ± 2 | 0.53 ± 0.05 |
| N#CC1=C(N)Oc2n[nH]c(-c3cccs3)c2C1c1ccc(Cl)cc1 (stereo not shown) [Compound 6f, 6-Amino-4-(4-chlorophenyl)-3-(thiophen-2-yl)-2,4-dihydropyrano[2,3-c]pyrazole-5-carbonitrile] | 31 ± 6 | – |
| COc1ccc(C2C(C#N)=C(N)Oc3n[nH]c(-c4cc(C)sc4C)c32)cc1I (stereo not shown) [Compound 7o, 6-Amino-3-(2,5-dimethylthiophen-3-yl)-4-(3-iodo-4-methoxyphenyl)-2,4-dihydropyrano[2,3-c]pyrazole-5-carbonitrile] | 29 ± 6 | – |
| COc1ccc(C2C(C#N)=C(N)Oc3n[nH]c(-c4cc(C)sc4C)c32)cc1Br (stereo not shown) [Compound 7n, 6-Amino-4-(3-bromo-4-methoxyphenyl)-3-(2,5-dimethylthiophen-3-yl)-2,4-dihydropyrano[2,3-c]pyrazole-5-carbonitrile] | 32 ± 3 | – |
| N#CC1=C(N)Oc2n[nH]c(-c3cccs3)c2C1c1ccc([N+](=O)[O-])cc1 (racemic) [Compound 6g, 6-Amino-4-(4-nitrophenyl)-3-(thiophen-2-yl)-2,4-dihydropyrano[2,3-c]pyrazole-5-carbonitrile] | 57 ± 2 | 33 ± 5 |
| COc1ccc(C2C(C#N)=C(N)Oc3n[nH]c(-c4cccs4)c32)cc1Br (stereo not shown) [Compound 6a, 6-Amino-4-(3-bromo-4-methoxyphenyl)-3-(thiophen-2-yl)-2,4-dihydropyrano [2,3-c]pyrazole-5-carbonitrile] | 72 ± 3 | – |
| COc1ccc(C2C(C#N)=C(N)Oc3c2c(-c2cccs2)nn3C)cc1Br (stereo not shown) [Compound 9a, 6-Amino-4-(3-bromo-4-methoxyphenyl)-1-methyl-3-(thiophen-2-yl)-1,4-dihydropyrano[2,3-c]pyrazole-5-carbonitrile] | 0 | – |
| N#CC1=C(N)Oc2n[nH]c(-c3cccs3)c2C1c1ccc2c(c1)-c1ccccc1C2 (stereo not shown) [Compound 6h, 6-amino-4-(9H-fluoren-3-yl)-3-(thiophen-2-yl)-2,4-dihydropyrano [2,3-c]pyrazole-5-carbonitrile] | 38 ± 6 | – |
